What was measured:
HMG-CoA Reductase (HMGR) = biological target: T1, HMG-CoA Reductase (HMGR) (Homo sapiens, UniProt P04035); assay: HMG-CoA reductase inhibition assay (Example 30); type: biochemical; conditions: read-out: % Inhibition over control
T1 sequence (P04035 426-888 limits assumed): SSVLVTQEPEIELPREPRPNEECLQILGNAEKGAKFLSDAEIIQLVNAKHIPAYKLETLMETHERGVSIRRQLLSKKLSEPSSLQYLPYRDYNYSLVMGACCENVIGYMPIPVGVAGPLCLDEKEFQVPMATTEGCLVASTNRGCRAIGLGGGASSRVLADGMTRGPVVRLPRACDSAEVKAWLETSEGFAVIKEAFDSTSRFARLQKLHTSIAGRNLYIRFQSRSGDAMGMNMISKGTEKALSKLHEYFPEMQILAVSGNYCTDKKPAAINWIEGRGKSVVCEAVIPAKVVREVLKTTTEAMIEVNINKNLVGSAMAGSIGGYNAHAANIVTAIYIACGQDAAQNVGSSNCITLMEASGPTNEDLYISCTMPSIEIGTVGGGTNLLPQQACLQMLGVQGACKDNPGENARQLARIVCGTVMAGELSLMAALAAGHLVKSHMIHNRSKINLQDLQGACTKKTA
Method: Amla seed extract prepared as per example 1 and water extract of dried Amla seed prepared as per example 8 was weighed separately and each extract was dissolved in dimethyl sulfoxide (DMSO) to prepare a stock of 400 mg/ml stock solution of each. From this stock, different dose levels were prepared in DMSO for further experimental use. […] The optical density (OD) values were recorded using spectrophotometer at regular time intervals. […] Based on the specific activity values from all the test doses, EC50 (Effective Concentration 50) were determined by plotting a curve between Specific activity Vs. Test concentration. EC50 values (μg/ml) and IC50 (μM) were determined by interpolation method by using Graph pad prism, version 5.01.

[1] = system: streptozotocin induced diabetic rats; assay: Antidiabetic activity in streptozotocin induced diabetic rats (Example 22); type: in vivo, rat
Method: The amla seed extract as prepared in example 1 was evaluated for antidiabetic activity in experimental rats. Male/Female albino wistar rats were maintained as per standard guidelines: housed in polypropylene cages, under 12 hour artificial light and dark cycles at a temperature of 24±2° C., given a standard pellet diet and water ad libitum. The animals were acclimatized to the animal house conditions for a week before beginning the experiment. Diabetes was induced by injecting streptozotocin 35 mg/kg dissolved in 0.1M citrate buffer of pH 4.5, intra-peritoneally. […] Animals with FBG above 200 mg/dl were considered diabetic. The diabetic animals were randomly divided into three groups of six animals each. […] The plasma CRP level was measured initially and then at Day 28 of the study.

Structure (SMILES): CC[C@H](C)C(=O)O[C@H]1C[C@@H](C)C=C2C=C[C@H](C)[C@H](CC[C@@H]3C[C@@H](O)CC(=O)O3)[C@H]21 [LOVASTATIN, lovastatin]
- inhibition at 2.5 µM (HMG-CoA Reductase (HMGR); test concentration 2.5 μM): 37%
- inhibition at 5 µM (HMG-CoA Reductase (HMGR); test concentration 5 μM): 37.6%
- inhibition at 10 µM (HMG-CoA Reductase (HMGR); test concentration 10 μM): 37.7%
- inhibition at 20 µM (HMG-CoA Reductase (HMGR); test concentration 20 μM): 41.5%
- inhibition at 40 µM (HMG-CoA Reductase (HMGR); test concentration 40 μM): 55.6%
- inhibition at 60 µM (HMG-CoA Reductase (HMGR); test concentration 60 μM): 76.5%
- inhibition at 80 µM (HMG-CoA Reductase (HMGR); test concentration 80 μM): 86.6%
- inhibition at 100 µM (HMG-CoA Reductase (HMGR); test concentration 100 μM): 98.5%

Structure (SMILES): COc1ccc(Cl)cc1C(=O)NCCc1ccc(S(=O)(=O)NC(=O)NC2CCCCC2)cc1 [Glibenclamide]
- Fasting Blood Glucose level Day 7 ([1]; 0.5 mg/kg for 28 days): 211 mg/dL
- Fasting Blood Glucose level Day 14 ([1]; 0.5 mg/kg for 28 days): 179 mg/dL
- Fasting Blood Glucose level Day 21 ([1]; 0.5 mg/kg for 28 days): 136 mg/dL
- Fasting Blood Glucose level Day 28 ([1]; 0.5 mg/kg for 28 days): 109 mg/dL
- effect on blood glucose level ([1]; 0.5 mg/kg for 28 days): decreased the blood glucose level to nearly normal
- Fasting Blood Glucose level Day 1 (Initial) ([1]; 0.5 mg/kg for 28 days group): 406 mg/dL
- effect on CRP level ([1]; 0.5 mg/kg for 28 days, compared to initial CRP value): failed to decrease the CRP level significantly
- CRP level Day 28 (Final) ([1]; plasma, 0.5 mg/kg for 28 days): 9.6 mg/L
- CRP level Day 1 (Initial) ([1]; plasma, 0.5 mg/kg for 28 days group): 10.8 mg/L

— patent publication US10286022B2, “Medicinal composition of extract of seed of emblica officinalis and method of preparing the same” (priority 2013, dated 2019)
